{"source": "paper PMC8838189", "about": "“Thiazolidinedione Derivatives: In Silico, In Vitro, In Vivo, Antioxidant and Anti-Diabetic Evaluation” (Molecules, 2022)", "key": {"[1]": {"assay": "Radical scavenging by DPPH method", "settings": "DPPH assay", "method": "The assay of 2,2-Diphenyl-1-picrylhydrazyl radical (DPPH) was performed according to the method at.\nThe antioxidant activity was examined for the hybrids (4–7) using the stable DPPH assay. The antioxidant results from different concentrations (0.16, 0.8, 4, 20, 40, 200 and 1000 µg/mL) were represented in Figure 5 as IC50 value (concentration of compound is essential for rising 50% of reducing power for H-donating or radical scavenging). The effect of the scavenging is rising in the trend 4 > 5 > 6 > STD > 7. […] After blocking the hydrazide group by aldehyde motifs in compounds 6 and 7, the activity was decreased. High scavenging activity may be due to the stabilization of the lone pair in the conjugated system by the presence of terminal ester or hydrazide."}, "[2]": {"tested_on": "alloxan-induced diabetic rat model", "assay": "Oral anti-hyperglycemic activity, blood glucose level in alloxan-induced diabetic rat model", "assay_type": "in vivo, Albino male Wistar rats", "method": "Albino male Wistar rats (150 ± 20 g) were obtained. (Supplementary Materials).\nThe animals were kept fasting overnight (12 h) before induction of diabetes. Diabetes was induced in rats as reported and (Supplementary Materials).\nBlood samples were obtained from the tail vein of all rats, the blood glucose levels (BGLs) were measured and monitored in all treatment groups at days 0 (basal), 2, 4, 15 and 30 as reported.\nOral anti-hyperglycemic activity was evaluated for compounds 4–7 by an alloxan-induced diabetic rat model. […] The BGL was monitored for each tested compound at three different doses (50,100 and 250 mg/Kg) and for five experimental period durations (0, 2, 4, 15, 30 days). […]\nThe animals were kept fasting overnight (12 h) before induction of diabetes. […]"}, "[3]": {"tested_on": "alloxan-induced diabetic rat model", "assay": "Serum lipid profile (CH, TG, HDL, LDL, VLDL) in alloxan-induced diabetic rats", "assay_type": "in vivo, Albino male Wistar rats", "settings": "50 mg/Kg; for Serum CH (cholesterol) level: all experimental times", "method": "The blood samples (0.5 mL) were withdrawn from each rat using the retro-orbital plexus and the other steps for biochemical analysis were adapted. (Supplementary Materials).\nThe serious side effect related to diabetes is hyperlipidemia. The insulin deficiency promotes adipocytes to generate fatty acid, hepatic phospholipids and cholesterol. Thus, the levels of cholesterol (CH), triglyceride (TG), high (HDL), low (LDL) and very low (VLDL) density lipoproteins, in serum for alloxan-loaded diabetes have been measured at 50 mg/Kg concentration (Figure 7). All lipid parameters for all tested compounds have (p < 0.05) compared to the diabetic control group (Figure 7).\nFigure 7 The level of (A) CH (Cholesterol); (B) TG (Triglyceride); (C) HDL (High density lipoprotein); (D) LDL (Low density lipoprotein) and (E) VLDL (Very low density lipoprotein) in serum of hyperglycemic loaded rats. […] Data analyzed by one way ANOVA followed by LSD test and expressed as mean ± SEM from five observations. […]\nglucose level of rats was determined using glucose strips. Rats with plasma glucose concentration N 300 mg/dl (Gadadare et al., 2015) were considered diabetic and included […]\nThe blood samples (0.5 ml) were withdrawn from the retro-orbital plexus of each rat under mild anesthesia using a glass capillary tube after fasting for 6 h. Blood samples were centrifuged at 3000 rpm for 15 min. The serum was kept at −80 °C until analyzed. Speciﬁc reagent kits were used to determine levels of serum triglyceride (TG), serum cholesterol (CH), serum low density lipoproteins (LDL), serum high density lipoproteins (HDL) for assessing the lipid proﬁle.\nData are expressed as mean ± S.E. Data analysis was done using one way analysis of variance (ANOVA) followed by least significant difference (LSD) test for multiple comparisons. Difference was considered significant when p is less than 0.05. SPSS (version 11) program was used to carry out"}, "[4]": {"target": "α-amylase enzyme", "sequence (P04746 16-511)": "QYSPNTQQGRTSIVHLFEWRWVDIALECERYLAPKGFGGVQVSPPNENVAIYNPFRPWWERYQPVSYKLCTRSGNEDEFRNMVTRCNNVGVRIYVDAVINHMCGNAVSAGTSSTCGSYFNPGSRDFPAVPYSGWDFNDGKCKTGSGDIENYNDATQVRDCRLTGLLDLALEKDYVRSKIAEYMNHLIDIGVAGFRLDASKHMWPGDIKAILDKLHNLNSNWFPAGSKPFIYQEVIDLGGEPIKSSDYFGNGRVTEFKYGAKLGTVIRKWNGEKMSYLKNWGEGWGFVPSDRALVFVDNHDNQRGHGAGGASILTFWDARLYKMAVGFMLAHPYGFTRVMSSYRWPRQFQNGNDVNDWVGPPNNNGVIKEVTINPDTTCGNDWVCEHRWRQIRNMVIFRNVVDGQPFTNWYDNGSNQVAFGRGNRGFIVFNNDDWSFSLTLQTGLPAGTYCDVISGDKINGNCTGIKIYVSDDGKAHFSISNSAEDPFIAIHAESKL", "assay": "In vitro inhibition of α-amylase assay", "assay_type": "biochemical", "settings": "six concentrations 5-40 µg/mL, non-linear regression; read-out: IC50 against α-amylase enzyme (converted)", "method": "- inhibition in-vitro of α-Amylase assay:\nThe α-amylase activity of the compounds were determined using a method in which 250 μL of each compound, or Metformin .HCl, dissolved in ethanol to obtain different concentrations (5, 10, 15, 20,30 and 40 μg/mL ), was mixed with 500 μL of α-amylase (2 U/mL ) in phosphate buffer (100 mM, pH 6.8) and incubated at 37 °C for 10 min. Thereafter, 50 μL\n(1 picture or pasted object on this page, not shown here) […]\nof 1% starch, dissolved in the same buffer, was added to the mixture and the samples were incubated again at 37 °C. After 30 min, dinitrosalicylic acid (DNS) colour reagent (1 mL) was added. The (DNS) was prepared by adding 437mg of 3,5- dinitro salicylic acid in 20 mL distilled water to12 g of sodium potassium tartrate in 8 mL of 2 M NaOH, then added distilled water until the solution reach to 40 mL ). the samples were boiled for 10 min in water bath. For non-enzymatic reactions, the assays were performed with a blank containing all of the components except the enzyme."}}}
{"compound": "COc1ccc(/C=N/NC(=O)CN2C(=O)S/C(=C/c3ccc4c(c3)OCO4)C2=O)cc1", "note": "[Compound 7]", "values": [{"measurement": "Antioxidant (scavenging) activity compared to STD (ascorbic acid)", "setting": "[1]", "value": "lower scavenging activity than STD"}, {"measurement": "Blood glucose level (BGL) reduction", "setting": "[2]; 50 mg/Kg, 15th and 30th days", "value": "highest percentage in the BGL reduction"}, {"measurement": "Blood glucose level (BGL) compared to DC", "setting": "[2]; 100 mg/Kg, 15th and 30th days", "value": "insignificant decrease in the BGL"}, {"measurement": "Blood glucose level (BGL) compared to DC", "setting": "[2]; 250 mg/Kg, 4th, 15th and 30th days", "value": "reduced BGL significantly"}, {"measurement": "Serum CH (cholesterol) level", "setting": "[3]", "value": "worst CH level from all compounds"}, {"measurement": "IC50", "setting": "[4]", "value": 130, "unit": "µM"}]}
{"compound": "CCOC(=O)CN1C(=O)SC(=Cc2ccc3c(c2)OCO3)C1=O", "note": "[Compound 4, Ethyl-2-(5-(benzo[d][1,3]dioxol-5-ylmethylene)-2,4-dioxothiazolidin-3-yl)acetate]", "values": [{"measurement": "Blood glucose level (BGL) compared to DC", "setting": "[2]; 50 mg/Kg, 2nd, 4th and 15th days", "value": "suffered from controlling the BGL"}, {"measurement": "Blood glucose level (BGL) compared to DC", "setting": "[2]; 100 mg/Kg, 15th and 30th days", "value": "significance decrease in the BGL"}, {"measurement": "Blood glucose level (BGL) compared to DC", "setting": "[2]; 250 mg/Kg, all durations of the experiment", "value": "failed to control BGL"}, {"measurement": "Serum VLDL level, regulation to nearly normal value", "setting": "[3]; 0th and 15th days", "value": "failed to do so"}, {"measurement": "Serum TG (triglyceride) level compared to DC", "setting": "[3]; 2nd day", "value": "failed to regulate the TG level lower than the DC level"}, {"measurement": "Serum VLDL level", "setting": "[3]; 2nd, 14th and 30th days", "value": "nearly normal value"}, {"measurement": "Serum CH (cholesterol) level", "setting": "[3]", "value": "moderate regulation of the CH value"}]}
{"compound": "5-(Benzo[d][1,3]dioxol-5-ylmethylene)-3-(2-(2,4-dioxo thiazolidin-3-yl) acetyl) thiazolidine-2,4-dione [Compound 6]", "values": [{"measurement": "Blood glucose level (BGL) compared to DC", "setting": "[2]; 50 mg/Kg, 2nd and 4th days", "value": "suffered from controlling the BGL"}, {"measurement": "Blood glucose level (BGL) compared to DC", "setting": "[2]; 100 mg/Kg, all of the experiments", "value": "increased the BGL rather than DC"}, {"measurement": "Serum CH (cholesterol) level reduction", "setting": "[3]; 2nd and 4th days", "value": "moderate reduction"}, {"measurement": "Serum CH (cholesterol) level reduction", "setting": "[3]; 15th and 30th days", "value": "best reduction of the CH level"}, {"measurement": "Serum VLDL level", "setting": "[3]; 15th and 30th days", "value": "lower than normal value"}]}
{"compound": "NNC(=O)CN1C(=O)SC(=Cc2ccc3c(c2)OCO3)C1=O", "note": "[Compound 5, 2-(5-(Benzo[d][1,3]dioxol-5-ylmethylene)-2,4-dioxothiazolidin-3-yl)acetohydrazide]", "values": [{"measurement": "Blood glucose level (BGL) compared to DC", "setting": "[2]; 100 mg/Kg, 15th and 30th days", "value": "significance decrease in the BGL"}, {"measurement": "Blood glucose level (BGL) regulation", "setting": "[2]; 250 mg/Kg, 15th and 30th days", "value": "organized the BGL more than 6"}, {"measurement": "Serum CH (cholesterol) level reduction", "setting": "[3]; 2nd day", "value": "moderate reduction value"}, {"measurement": "Serum CH (cholesterol) level reduction", "setting": "[3]; 15th and 30th days", "value": "best reduction of the CH level"}, {"measurement": "Serum VLDL level", "setting": "[3]; 15th and 30th days", "value": "lower than normal value"}]}
